Experimental data: PubChem BioAssay AID248 (DTP/NCI, 2004)
Where “and” joins values, the source holds several entries; their conditions need not be identical. Equal entries are not always repeated. Toxic doses and inconclusive results are not listed. Cut-off read from the data, not from the text of the source: active = T/C of 150% or more; inactive = T/C below 125%.

System: L1210 leukemia ip in BDF1 mice, survival T/C
Assay: NCI In Vivo Anticancer Drug Screen. Data for tumor model L1210 Leukemia (intraperitoneal) in B6D2F1 (BDF1) mice
Settings: endpoint: mean survival time, higher = longer survival
Summary of the method: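 Ratio derived from survival: compound-dosed mice over vehicle-dosed mice, all bearing a transplantable tumor.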

[1] = dose: 100.0 mg/kg/injection, schedule: Q01DX001 (ip), vehicle: Klucel (hydroxypropylcellulose) (HPC)
[2] = dose: 200.0 mg/kg/injection, schedule: Q01DX001 (ip), vehicle: Klucel (hydroxypropylcellulose) (HPC)
[3] = dose: 400.0 mg/kg/injection, schedule: Q01DX001 (ip), vehicle: Klucel (hydroxypropylcellulose) (HPC)
[4] = dose: 25.0 mg/kg/injection, schedule: Q01DX009 (ip), vehicle: saline with Tween-80
[5] = dose: 50.0 mg/kg/injection, schedule: Q01DX009 (ip), vehicle: saline with Tween-80
[6] = dose: 100.0 mg/kg/injection, schedule: Q04DX003 (ip), vehicle: saline with Tween-80
[7] = dose: 200.0 mg/kg/injection, schedule: Q04DX003 (ip), vehicle: saline with Tween-80

Measured: T/C

c1ccc(Nc2ccc(Nc3ccccc3)cc2)cc1
inactive: [1] 94 % of control | dose: 100.0 mg/kg/injection, schedule: Q01DX009 (ip), vehicle: saline 113 % of control | dose: 100.0 mg/kg/injection, schedule: Q04DX003 (ip), vehicle: saline 86 % of control | [2] 94 % of control | dose: 200.0 mg/kg/injection, schedule: Q01DX009 (ip), vehicle: saline 110 % of control | dose: 200.0 mg/kg/injection, schedule: Q04DX003 (ip), vehicle: saline 93 % of control | [3] 91 % of control | dose: 400.0 mg/kg/injection, schedule: Q01DX009 (ip), vehicle: saline 110 % of control | dose: 400.0 mg/kg/injection, schedule: Q04DX003 (ip), vehicle: saline 95 % of control

O/N=C1\CCCc2sccc21
inactive: dose: 100.0 mg/kg/injection, schedule: Q01DX001 (ip), vehicle: steriod suspending solution 114 % of control | dose: 200.0 mg/kg/injection, schedule: Q01DX001 (ip), vehicle: steriod suspending solution 98 % of control | dose: 400.0 mg/kg/injection, schedule: Q01DX001 (ip), vehicle: steriod suspending solution 98 % of control

OC1CC[N-]CC1.OC1CC[N-]CC1.[Cl][Pt+2]([Cl])([Cl])[Cl]
inactive: dose: 12.5 mg/kg/injection, schedule: Q01DX009 (ip), vehicle: saline with Tween-80 100 % of control | [4] 103 % of control | dose: 25.0 mg/kg/injection, schedule: Q04DX003 (ip), vehicle: saline with Tween-80 100 % of control | [5] 92 % of control | dose: 50.0 mg/kg/injection, schedule: Q04DX003 (ip), vehicle: saline with Tween-80 107 % of control | [6] 112 % of control and 119 % of control

COc1cc2cc3cc4cc(OC)c(OC)cc4c(C)[n+]3cc2cc1OC (tested in a mixture with another compound)
inactive: dose: 2.5 mg/kg/injection, schedule: Q01DX009 (ip), vehicle: saline 106 % of control | dose: 5.0 mg/kg/injection, schedule: Q01DX009 (ip), vehicle: saline 108 % of control and 118 % of control | dose: 10.0 mg/kg/injection, schedule: Q01DX009 (ip), vehicle: saline 108 % of control | dose: 20.0 mg/kg/injection, schedule: Q01DX009 (ip), vehicle: saline 104 % of control | dose: 40.0 mg/kg/injection, schedule: Q01DX009 (ip), vehicle: saline 110 % of control and 111 % of control | dose: 80.0 mg/kg/injection, schedule: Q01DX009 (ip), vehicle: saline 92 % of control

CC(C)CC(O)CC(C)C
inactive: [6] 95 % of control | dose: 118.0 mg/kg/injection, schedule: Q01DX009 (ip), vehicle: saline with Tween-80 108 % of control | [7] 93 % of control | dose: 250.0 mg/kg/injection, schedule: Q01DX009 (ip), vehicle: saline with Tween-80 102 % of control | dose: 400.0 mg/kg/injection, schedule: Q04DX003 (ip), vehicle: saline with Tween-80 90 % of control

CC1/C(=N\O)CC2C3(C)CCC2(C(C)C(=O)O)C(=O)C13 (stereo not given)
inactive: [1] 100 % of control | [2] 100 % of control | [3] 92 % of control

O=C1C=Cc2ccccc2C1=O
inactive: dose: 0.78 mg/kg/injection, schedule: Q01DX001 (ip), vehicle: Klucel (hydroxypropylcellulose) (HPC) 103 % of control | dose: 1.56 mg/kg/injection, schedule: Q01DX001 (ip), vehicle: Klucel (hydroxypropylcellulose) (HPC) 95 % of control | dose: 3.13 mg/kg/injection, schedule: Q01DX001 (ip), vehicle: Klucel (hydroxypropylcellulose) (HPC) 88 % of control

ClCC1Oc2ccccc2O1
inactive: dose: 100.0 mg/kg/injection, schedule: Q01DX001 (ip), vehicle: other 101 % of control | dose: 400.0 mg/kg/injection, schedule: Q01DX001 (ip), vehicle: other 97 % of control

CCCCOc1ccc(NC(N)=Nc2ccc(Cl)cc2)cc1
inactive: dose: 2.5 mg/kg/injection, schedule: Q01DX009 (ip), vehicle: saline with Tween-80 102 % of control | dose: 5.0 mg/kg/injection, schedule: Q01DX009 (ip), vehicle: saline with Tween-80 94 % of control | dose: 10.0 mg/kg/injection, schedule: Q01DX009 (ip), vehicle: saline with Tween-80 96 % of control | dose: 10.0 mg/kg/injection, schedule: Q04DX003 (ip), vehicle: saline with Tween-80 101 % of control | dose: 12.5 mg/kg/injection, schedule: Q01DX001 (ip), vehicle: carboxymethylcellulose (CMC) 109 % of control | dose: 20.0 mg/kg/injection, schedule: Q01DX009 (ip), vehicle: saline with Tween-80 103 % of control | dose: 20.0 mg/kg/injection, schedule: Q04DX003 (ip), vehicle: saline with Tween-80 92 % of control | dose: 25.0 mg/kg/injection, schedule: Q01DX001 (ip), vehicle: carboxymethylcellulose (CMC) 100 % of control | dose: 40.0 mg/kg/injection, schedule: Q04DX003 (ip), vehicle: saline with Tween-80 97 % of control | dose: 50.0 mg/kg/injection, schedule: Q01DX001 (ip), vehicle: carboxymethylcellulose (CMC) 100 % of control | dose: 80.0 mg/kg/injection, schedule: Q04DX003 (ip), vehicle: saline with Tween-80 98 % of control

CCC(C)C1NC(=O)C(NC(=O)c2c3nc4c(C(=O)NC5C(=O)NC(C(C)CC)C(=O)N6CCCC6C(=O)N(C)CC(=O)N(C)C(C(C)C)C(=O)OC5C)cc([N+](=O)[O-])c(C)c4oc-3c(C)c(=O)c2N)C(C)OC(=O)C(C(C)C)N(C)C(=O)CN(C)C(=O)C2CCCN2C1=O (stereo not given)
inactive: dose: 75.0 micrograms/kg/injection, schedule: Q01DX009 (ip), vehicle: saline + alcohol 111 % of control | dose: 100.0 micrograms/kg/injection, schedule: Q01DX009 (ip), vehicle: saline + alcohol 112 % of control | dose: 200.0 micrograms/kg/injection, schedule: Q01DX009 (ip), vehicle: saline + alcohol 122 % of control | dose: 300.0 micrograms/kg/injection, schedule: Q04DX003 (ip), vehicle: saline + alcohol 107 % of control | dose: 400.0 micrograms/kg/injection, schedule: Q04DX003 (ip), vehicle: saline + alcohol 108 % of control | dose: 600.0 micrograms/kg/injection, schedule: Q04DX003 (ip), vehicle: saline + alcohol 119 % of control

NC(=O)Nc1ccccc1-c1ccccc1
inactive: dose: 100.0 mg/kg/injection, schedule: Q04DX002 (ip), vehicle: Klucel (hydroxypropylcellulose) (HPC) 103 % of control | dose: 200.0 mg/kg/injection, schedule: Q04DX002 (ip), vehicle: Klucel (hydroxypropylcellulose) (HPC) 109 % of control | dose: 400.0 mg/kg/injection, schedule: Q04DX002 (ip), vehicle: Klucel (hydroxypropylcellulose) (HPC) 103 % of control

CCc1nc(C#N)c(N)o1
inactive: dose: 5.0 mg/kg/injection, schedule: Q01DX001 (ip), vehicle: saline 98 % of control | dose: 10.0 mg/kg/injection, schedule: Q01DX001 (ip), vehicle: saline 103 % of control | dose: 20.0 mg/kg/injection, schedule: Q01DX001 (ip), vehicle: saline 97 % of control | dose: 40.0 mg/kg/injection, schedule: Q01DX001 (ip), vehicle: saline 95 % of control | dose: 80.0 mg/kg/injection, schedule: Q01DX001 (ip), vehicle: saline 98 % of control

COc1ccc(C)cc1NC(=S)NC(=O)c1ccc(Cl)cc1Cl
inactive: [4] 93 % of control and 105 % of control | [5] 93 % of control and 94 % of control | dose: 100.0 mg/kg/injection, schedule: Q04DX002 (ip), vehicle: saline with Tween-80 96 % of control | [6] 98 % of control | dose: 200.0 mg/kg/injection, schedule: Q04DX002 (ip), vehicle: saline with Tween-80 93 % of control and 107 % of control | [7] 95 % of control | dose: 400.0 mg/kg/injection, schedule: Q01DX009 (ip), vehicle: saline with Tween-80 96 % of control | dose: 400.0 mg/kg/injection, schedule: Q04DX002 (ip), vehicle: saline with Tween-80 93 % of control and 98 % of control
